The record followed here is patent US6916484B1, “Aqueous pharmaceutical composition containing moxifloxacin or salts thereof” (Bayer Aktiengesellschaft, priority 1999, dated 2005).

This series in a line: Saturation solubility of moxifloxacin hydrochloride in water. In kind it is physicochemical. Particulars: aqueous solution, room temperature. How it is done:
Accordingly, freshly prepared solutions of moxifloxacin with sugars and/or sugar alcohols have, even if they have relatively high iron contents, a sufficient stability against the formation of particles for the period of use of, preferably, up to 12 hours after preparation. Thus, the problem to be solved by the invention can also be overcome by iron-containing solutions for infusion which are used immediately after preparation. Here, it is expedient to use a process in which a pre-formed concentrated aqueous solution of moxifloxacin or a salt thereof and a pre-formed solution of the sugar and/or the sugar alcohols are mixed with one another. […] The concentrated aqueous solution of moxifloxacin id hydrochloride preferably contains from 0.4% (w/v) to 2.4% (w/v) of moxifloxacin (calculated as betaine). […] The active compound concentrate preferably comprises from 1.0 to 2.0% (w/v) of moxifloxacin (calculated as betaine), particularly preferably 2.0% (w/v) of moxifloxacin (calculated as betaine). […]

SMILES strings stand for the structures. Structures can show the parent of a compound that is named as a salt.

As for `COc1c(N2C[C@@H]3CCCN[C@@H]3C2)c(F)cc2c(=O)c(C(=O)O)cn(C3CC3)c12` [moxifloxacin hydrochloride, 1-cyclopropyl-7-([S,S]-2,8-diazabicyclo[4.3.0]non-8-yl)-6-fluoro-1,4-dihydro-8-methoxy-4-oxo-3-quinolonecarboxylic acid], the saturation solubility entry is “about 2.4 % (w/v)”.
